# ChEMBL document CHEMBL4304811, “Development of a Water-Soluble Indolylmaleimide Derivative IM-93 Showing Dual Inhibition of Ferroptosis and NETosis” (ACS Med Chem Lett, 2019)
# The source made the active and inactive calls. The rule behind the calls is not given here.
# Key:
# [1] = biological target: Serine/threonine-protein kinase Nek2 (Homo sapiens) (UniProt P51955); test: Binding affinity to wild-type human partial length NEK2 (M1 to K309 residues) expressed in bacterial expression system assessed as residual binding level at 10 uM by Kinomescan method relative to control
# [2] = biological target: Atypical kinase COQ8B, mitochondrial (Homo sapiens) (UniProt Q96D53); test: Binding affinity to wild-type human full length ADCK4 (M1 to S544 residues) expressed in bacterial expression system assessed as residual binding level at 10 uM by Kinomescan method relative to control
# [3] = biological target: Focal adhesion kinase 1 (Homo sapiens) (UniProt Q05397); test: Binding affinity to wild-type human partial length FAK (D402 to R696 residues) expressed in bacterial expression system assessed as residual binding level at 10 uM by Kinomescan method relative to control
# [4] = biological target: Serine/threonine-protein kinase TAO2 (Homo sapiens) (UniProt Q9UL54); test: Binding affinity to wild-type human partial length TAOK2 (M1 to A320 residues) expressed in mammalian expression system assessed as residual binding level at 10 uM by Kinomescan method relative to control
# [5] = biological target: Casein kinase I isoform gamma-3 (Homo sapiens) (UniProt Q9Y6M4); test: Binding affinity to wild-type human full length CSNK1G3 (M1 to K447 residues) expressed in bacterial expression system assessed as residual binding level at 10 uM by Kinomescan method relative to control
# [6] = biological target: Phosphatidylinositol 5-phosphate 4-kinase type-2 gamma (Homo sapiens) (UniProt Q8TBX8); test: Binding affinity to wild-type human partial length PIP5K2C (M1 to A421 residues) expressed in mammalian expression system assessed as residual binding level at 10 uM by Kinomescan method relative to control
# Jurkat = test: Cytoprotection against fas ligand/cycloheximide/Z-VAD-fmk-induced necroptosis in human Jurkat cells at 4 to 25 uM measured after 20 hrs by WST-8 assay; type: functional, cell-based
# [7] = biological target: Non-receptor tyrosine-protein kinase TNK1 (Homo sapiens) (UniProt Q13470); test: Binding affinity to wild-type human full length TNK1 (M1 to P661 residues) expressed in bacterial expression system assessed as residual binding level at 10 uM by Kinomescan method relative to control
# [8] = biological target: Activated CDC42 kinase 1 (Homo sapiens) (UniProt Q07912); test: Binding affinity to wild-type human partial length TNK2 (S159 to D474 residues) expressed in bacterial expression system assessed as residual binding level at 10 uM by Kinomescan method relative to control
# Serine/threonine-protein kinase TAO2 (Homo sapiens), sequence (Q9UL54 whole entry, the tested form may be a part, canonical isoform): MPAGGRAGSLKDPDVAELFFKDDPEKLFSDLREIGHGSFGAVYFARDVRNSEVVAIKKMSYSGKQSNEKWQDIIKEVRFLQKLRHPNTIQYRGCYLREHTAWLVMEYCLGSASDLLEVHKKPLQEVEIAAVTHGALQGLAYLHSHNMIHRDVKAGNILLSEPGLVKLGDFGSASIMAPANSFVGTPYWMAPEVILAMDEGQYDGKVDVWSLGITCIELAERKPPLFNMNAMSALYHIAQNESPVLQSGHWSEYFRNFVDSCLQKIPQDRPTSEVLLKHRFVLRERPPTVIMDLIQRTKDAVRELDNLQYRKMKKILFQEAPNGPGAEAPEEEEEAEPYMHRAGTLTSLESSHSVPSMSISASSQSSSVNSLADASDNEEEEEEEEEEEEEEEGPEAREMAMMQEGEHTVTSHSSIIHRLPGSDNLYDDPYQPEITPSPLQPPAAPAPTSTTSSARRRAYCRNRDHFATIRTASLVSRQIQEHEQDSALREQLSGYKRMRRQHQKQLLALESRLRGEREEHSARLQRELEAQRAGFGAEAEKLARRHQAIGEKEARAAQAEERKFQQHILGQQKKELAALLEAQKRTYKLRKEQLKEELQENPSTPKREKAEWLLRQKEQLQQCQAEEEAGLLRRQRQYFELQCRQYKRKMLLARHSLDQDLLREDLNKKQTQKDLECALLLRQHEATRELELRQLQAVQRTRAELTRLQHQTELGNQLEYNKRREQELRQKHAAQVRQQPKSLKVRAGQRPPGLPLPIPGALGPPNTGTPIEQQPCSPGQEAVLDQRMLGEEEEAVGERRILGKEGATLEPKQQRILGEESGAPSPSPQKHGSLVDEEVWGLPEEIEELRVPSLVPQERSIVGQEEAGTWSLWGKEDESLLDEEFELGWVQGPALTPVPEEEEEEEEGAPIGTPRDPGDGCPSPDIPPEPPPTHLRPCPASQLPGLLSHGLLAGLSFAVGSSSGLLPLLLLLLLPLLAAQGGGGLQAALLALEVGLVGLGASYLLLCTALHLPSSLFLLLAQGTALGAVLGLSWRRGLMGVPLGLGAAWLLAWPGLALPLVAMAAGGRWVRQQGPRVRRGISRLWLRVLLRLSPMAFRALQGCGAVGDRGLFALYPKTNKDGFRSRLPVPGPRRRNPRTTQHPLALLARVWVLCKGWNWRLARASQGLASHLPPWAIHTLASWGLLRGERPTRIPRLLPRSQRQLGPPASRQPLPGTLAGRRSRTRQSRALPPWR
# Phosphatidylinositol 5-phosphate 4-kinase type-2 gamma (Homo sapiens), sequence (Q8TBX8 whole entry, the tested form may be a part): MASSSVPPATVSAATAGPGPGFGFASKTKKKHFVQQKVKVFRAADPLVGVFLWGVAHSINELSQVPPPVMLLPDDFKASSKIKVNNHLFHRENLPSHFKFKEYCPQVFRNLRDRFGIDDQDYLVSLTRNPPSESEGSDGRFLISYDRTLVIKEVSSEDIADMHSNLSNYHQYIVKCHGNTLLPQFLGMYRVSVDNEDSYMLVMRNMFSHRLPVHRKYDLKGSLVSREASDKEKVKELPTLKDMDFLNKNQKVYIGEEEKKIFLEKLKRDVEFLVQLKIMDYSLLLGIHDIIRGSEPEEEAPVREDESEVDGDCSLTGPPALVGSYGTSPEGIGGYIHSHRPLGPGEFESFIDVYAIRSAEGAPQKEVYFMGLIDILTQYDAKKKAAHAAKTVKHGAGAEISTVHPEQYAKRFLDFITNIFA
# Atypical kinase COQ8B, mitochondrial (Homo sapiens), sequence (Q96D53 whole entry, the tested form may be a part): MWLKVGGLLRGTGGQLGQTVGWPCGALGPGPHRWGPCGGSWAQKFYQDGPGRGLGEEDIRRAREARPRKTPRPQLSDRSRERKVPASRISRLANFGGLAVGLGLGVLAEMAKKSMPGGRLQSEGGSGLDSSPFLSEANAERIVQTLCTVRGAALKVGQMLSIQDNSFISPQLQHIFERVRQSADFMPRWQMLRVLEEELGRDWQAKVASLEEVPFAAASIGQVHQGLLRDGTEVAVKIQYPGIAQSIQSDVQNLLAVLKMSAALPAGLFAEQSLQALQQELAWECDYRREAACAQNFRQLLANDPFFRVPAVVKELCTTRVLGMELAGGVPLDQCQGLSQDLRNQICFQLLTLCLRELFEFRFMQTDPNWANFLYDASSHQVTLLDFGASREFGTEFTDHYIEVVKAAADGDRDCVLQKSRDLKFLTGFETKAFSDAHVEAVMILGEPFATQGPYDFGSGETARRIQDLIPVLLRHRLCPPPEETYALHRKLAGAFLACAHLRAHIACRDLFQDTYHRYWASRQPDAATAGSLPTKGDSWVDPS
# Serine/threonine-protein kinase Nek2 (Homo sapiens), sequence (P51955 whole entry, the tested form may be a part): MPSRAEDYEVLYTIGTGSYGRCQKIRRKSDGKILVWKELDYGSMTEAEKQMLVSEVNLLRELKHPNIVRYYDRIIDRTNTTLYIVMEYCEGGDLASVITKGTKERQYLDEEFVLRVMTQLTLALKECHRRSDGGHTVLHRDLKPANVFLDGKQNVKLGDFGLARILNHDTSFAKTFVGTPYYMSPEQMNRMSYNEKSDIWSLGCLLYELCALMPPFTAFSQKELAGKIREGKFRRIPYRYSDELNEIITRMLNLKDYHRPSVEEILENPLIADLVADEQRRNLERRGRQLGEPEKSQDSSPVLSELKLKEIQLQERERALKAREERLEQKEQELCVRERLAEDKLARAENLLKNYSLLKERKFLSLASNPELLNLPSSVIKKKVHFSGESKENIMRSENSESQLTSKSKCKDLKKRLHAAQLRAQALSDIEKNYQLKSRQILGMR
# Non-receptor tyrosine-protein kinase TNK1 (Homo sapiens), sequence (Q13470 whole entry, the tested form may be a part): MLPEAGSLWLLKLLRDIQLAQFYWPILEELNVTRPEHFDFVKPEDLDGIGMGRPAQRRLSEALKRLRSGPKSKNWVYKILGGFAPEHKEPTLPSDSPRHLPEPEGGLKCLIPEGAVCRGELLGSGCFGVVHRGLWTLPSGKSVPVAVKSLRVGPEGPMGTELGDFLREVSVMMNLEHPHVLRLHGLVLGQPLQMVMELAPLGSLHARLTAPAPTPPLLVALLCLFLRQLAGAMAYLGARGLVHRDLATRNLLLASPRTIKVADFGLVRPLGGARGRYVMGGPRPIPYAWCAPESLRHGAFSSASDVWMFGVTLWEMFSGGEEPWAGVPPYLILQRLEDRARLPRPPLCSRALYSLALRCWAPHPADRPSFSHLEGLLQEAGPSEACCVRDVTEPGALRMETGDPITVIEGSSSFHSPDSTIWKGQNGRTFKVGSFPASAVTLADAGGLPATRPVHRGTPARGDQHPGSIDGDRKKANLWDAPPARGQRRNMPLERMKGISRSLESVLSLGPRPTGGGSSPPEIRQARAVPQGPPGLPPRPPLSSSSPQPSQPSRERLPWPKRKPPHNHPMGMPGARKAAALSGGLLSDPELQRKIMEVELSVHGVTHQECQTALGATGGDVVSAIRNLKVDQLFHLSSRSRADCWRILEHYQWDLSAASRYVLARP
# Focal adhesion kinase 1 (Homo sapiens), sequence (Q05397 2-1052 limits assumed): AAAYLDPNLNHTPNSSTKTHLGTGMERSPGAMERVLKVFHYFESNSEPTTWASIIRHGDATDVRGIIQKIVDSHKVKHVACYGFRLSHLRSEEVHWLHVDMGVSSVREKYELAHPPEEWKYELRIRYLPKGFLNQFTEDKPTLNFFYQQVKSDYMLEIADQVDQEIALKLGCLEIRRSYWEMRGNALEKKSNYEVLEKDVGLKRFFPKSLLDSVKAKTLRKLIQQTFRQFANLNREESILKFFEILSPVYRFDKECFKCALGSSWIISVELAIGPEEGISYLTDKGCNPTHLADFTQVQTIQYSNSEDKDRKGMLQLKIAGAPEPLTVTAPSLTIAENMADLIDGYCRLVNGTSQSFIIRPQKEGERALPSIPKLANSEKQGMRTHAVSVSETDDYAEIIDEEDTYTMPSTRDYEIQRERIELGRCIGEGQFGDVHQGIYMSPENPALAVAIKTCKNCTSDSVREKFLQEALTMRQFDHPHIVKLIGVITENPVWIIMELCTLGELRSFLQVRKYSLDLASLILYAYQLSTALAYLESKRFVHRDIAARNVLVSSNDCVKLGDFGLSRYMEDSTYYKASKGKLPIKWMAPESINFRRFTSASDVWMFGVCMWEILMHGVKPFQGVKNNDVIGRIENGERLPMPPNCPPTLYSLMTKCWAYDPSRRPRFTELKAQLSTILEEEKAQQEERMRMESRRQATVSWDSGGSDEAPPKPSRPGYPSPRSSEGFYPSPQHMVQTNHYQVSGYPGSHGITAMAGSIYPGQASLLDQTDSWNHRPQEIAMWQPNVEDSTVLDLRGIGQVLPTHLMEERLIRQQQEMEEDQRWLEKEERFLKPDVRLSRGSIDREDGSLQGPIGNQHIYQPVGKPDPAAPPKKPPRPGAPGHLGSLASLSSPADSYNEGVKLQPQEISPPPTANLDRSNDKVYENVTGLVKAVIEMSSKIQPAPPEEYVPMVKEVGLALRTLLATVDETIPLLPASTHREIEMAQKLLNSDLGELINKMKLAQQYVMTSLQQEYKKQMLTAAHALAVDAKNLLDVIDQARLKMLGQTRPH
# Casein kinase I isoform gamma-3 (Homo sapiens), sequence (Q9Y6M4 whole entry, looked up, the tested form may be a part, canonical isoform): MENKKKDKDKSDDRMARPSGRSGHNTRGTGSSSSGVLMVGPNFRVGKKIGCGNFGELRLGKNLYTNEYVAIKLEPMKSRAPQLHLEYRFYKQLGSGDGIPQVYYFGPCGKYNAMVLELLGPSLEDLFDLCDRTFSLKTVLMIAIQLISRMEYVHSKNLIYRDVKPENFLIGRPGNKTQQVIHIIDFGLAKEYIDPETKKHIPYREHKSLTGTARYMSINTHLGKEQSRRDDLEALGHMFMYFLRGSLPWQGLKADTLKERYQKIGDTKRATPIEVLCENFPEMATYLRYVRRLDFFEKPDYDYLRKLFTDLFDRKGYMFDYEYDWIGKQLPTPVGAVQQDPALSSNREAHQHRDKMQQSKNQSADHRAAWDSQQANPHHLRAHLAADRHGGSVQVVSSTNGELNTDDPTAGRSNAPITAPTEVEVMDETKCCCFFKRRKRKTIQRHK
smiles,measurement,setting,value
CC(C)N1C(=O)C(NCCCN(C)C)=C(c2cn(C)c3ccccc23)C1=O.Cl,Activity,[1],94%
same,Activity,[2],99%
same,Activity,[3],100%
same,Activity,[4],94%
same,Activity,[5],96%
same,Activity,[6],83%
same,Activity,Jurkat,inactive
same,Activity,[7],95%
same,Activity,[8],100%
